In patent publication US6528516B1, “Methods for reducing intraocular pressure using A3 adenosine receptor antagonists” (Trustees of the University of Pennsylvania, The Center for …, priority 1998, dated 2003):
Several values for one entry are separate records, joined by “and”; a condition that tells them apart may be missing. Equal entries are not always repeated.

Columns and labels:
[1] = system: HCE (human ciliary epithelial) cell line, NPE cells; assay: Cell volume (shrinkage) of NPE cells in isosmotic solution, Coulter Counter, 5 μM gramicidin; type: cell-based
Summary of the method: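 HCE-derived NPE cells suspended in isosmotic bicarbonate/HEPES Ringer's (pH 7.4, 298-305 mOsm), with 5 μM gramicidin D in all solutions to remove K^+ channel contribution. Volume measured by Coulter Counter as peak of distribution, normalized to first time point; shrinkage fit to monoexponential by nonlinear least squares for v∞ and τ. Vehicle-matched controls.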

rabbit iris-ciliary body = assay: Short-circuit current across intact rabbit ciliary epithelium (iris-ciliary body), 5 mM Ba2+; conditions: 30 μM, solvent-corrected
Excerpt: Adult male Dutch belted rabbits weighing 1.8-2.4 kg (Ace Animals, Boyertown, Pa.) were anesthetized with pentobarbital and sacrificed (Carre et al., J. Membr. Biol. 146:293-305, 1995). After enucleation, the iris-ciliary body (I-CB) was isolated as previously described (Carre et al., 1995, supra.). The experiments were in accordance with the Resolution on the Use of Animals in Research of the Association for Research in Vision and Ophthalmology.
The pupil and central iris were occluded with a Lucite disc, and the iris-ciliary body was mounted between the two halves of a Lucite chamber (1). The annulus of exposed tissue provided a projected surface area of 0.93 cm^2. Preparations were continuously bubbled with 95%O2-5%CO2 for maintenance of pH 7.4 in a Ringer's solution comprising (in mM): 110.0 NaCl, 10.0HEPES (acid), 5.0HEPES (Na^+), 30.0 NaHCO3, 2.5 CaCl2, 1.2 MgCl2, 5.9 KCl, and 10.0 glucose, at an osmolality of 305 mOsm. BaCl2 (5 mM) was added to the solution to block K^+ currents. The transepithelial potential was fixed at 0 mV, corrected for solution series resistance, and the short-circuit current was monitored on a chart recorder. Data were digitally acquired at 10 Hz via a DigiData 1200A converter and AxoScope 1.1 software (Axon Instruments, Foster City, Calif.). Automatic averaging was performed with a reduction factor of 100 to achieve a final sampling rate of 6/min. […]

human A3 receptor = molecular target: T1, human A3 receptor (Homo sapiens, UniProt P0DMS8); assay: Adenylate cyclase assay, CHO cell membranes, forskolin stimulated; type: biochemical; conditions: forskolin 1 μM
T1 sequence (P0DMS8 1-318): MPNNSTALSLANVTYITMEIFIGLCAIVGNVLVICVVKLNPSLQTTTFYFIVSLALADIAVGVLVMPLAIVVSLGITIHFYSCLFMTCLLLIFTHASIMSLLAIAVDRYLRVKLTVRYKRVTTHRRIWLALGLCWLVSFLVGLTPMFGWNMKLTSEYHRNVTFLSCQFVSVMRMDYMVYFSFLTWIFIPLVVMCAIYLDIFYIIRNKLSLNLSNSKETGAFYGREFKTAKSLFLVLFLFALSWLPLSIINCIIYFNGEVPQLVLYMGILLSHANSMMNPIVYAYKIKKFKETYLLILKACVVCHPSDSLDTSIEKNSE

[2] = 30 nM IB-MECA, 5 μM gramicidin, FIG. 2A
[3] = FIG. 2D, 100 nM Cl-IB-MECA, IB-MECA in parallel

Compound: CNC(=O)[C@H]1O[C@@H](n2cnc3c(NCc4cccc(I)c4)ncnc32)[C@H](O)[C@@H]1O [IB-MECA, N^6-(3-iodobenzyl)-adenosine-5′-N-methyluronamide]
- steady-state cell volume (V∞) [1, 2]: 98.5±0.1%
- time constant of the shrinkage (τ) [1, 2]: 3.5 ± 1.5 min
- effect of adenosine-receptor agonist on isoosmotic volume ([1]; 100 nM agonist): produced shrinkage
- steady-state cell volume (V∞) ([1]; 100 nM, FIG. 5A): 95.6±0.2%
- time constant of the shrinkage (τ) ([1]; 100 nM, FIG. 5A): 4.5 ± 0.6 min
- steady-state cell volume (V∞) ([1]; 1 μM IB-MECA, FIG. 2A): 95.9±0.3%
- time constant of the shrinkage (τ) ([1]; 1 μM IB-MECA, FIG. 2A): 2.4 ± 0.7 min
- steady-state cell volume (V∞) ([1]; 1 μM IB-MECA, FIG. 2B): 97.5±0.1%
- time constant of the shrinkage (τ) ([1]; 1 μM IB-MECA, FIG. 2B): 7.2 ± 1.0 min
- steady-state cell volume (V∞) ([1]; 3 μM IB-MECA, FIG. 2B): 96.7±0.3%
- time constant of the shrinkage (τ) ([1]; 3 μM IB-MECA, FIG. 2B): 10.0 ± 2.3 min
- steady-state cell volume (V∞) ([1]; 10 μM IB-MECA, FIG. 2B): 97.9±0.2%
- time constant of the shrinkage (τ) ([1]; 10 μM IB-MECA, FIG. 2B): 3.2 ± 1.1 min
- steady-state cell volume (V∞) [1, 3]: 96.8±0.4%
- time constant of the shrinkage (τ) [1, 3]: 6.3 ± 2.2 min
- Kd ([1]; Lineweaver-Burk plot of monoexponential fits, FIG. 2C, read-out: apparent Kd for the IB-MECA-induced shrinkage): 55 nM and ~55 nM
- effect on short-circuit current (rabbit iris-ciliary body): significant increase in the short-circuit current
- Maximal inhibition of adenylate cyclase (human A3 receptor): ~60 % of total stimulation
